Here are results for 28 compounds from US20210369846A1 (priority 2018, published 2021).

Data set [1] deals with HMEC-1 human vascular endothelial cells.

Marks after values point to notes of the source that are not given here. Where only a bound is given, the exact number is not on record here.

Take `O=C(O)CSCCC(F)(F)C(F)(F)C(F)(F)C(F)(F)C(F)(F)C(F)(F)C(F)(F)C(F)(F)F` [2a3a]: the “Maximum Non-Cytotoxic Concentration L929” value in the data set on L929 mouse fibroblasts amounted to 0.5%. In addition, the “Maximum Non-Cytotoxic Concentration HMEC-1” value in data set [1] was determined as 1%. Moreover, in the data set with blood, the “Maximum Non-Hemolytic Concentration” value is recorded as 0.05%.
The matching figures for `O=C(O)CSCCC(F)(F)C(F)(F)C(F)(F)C(F)(F)C(F)(F)C(F)(F)C(F)(F)C(F)(F)F` [2a3c]: 0.2%, 0.2% and 0.2%.
For `O=C(O)CSCCC(F)(F)C(F)(F)C(F)(F)C(F)(F)C(F)(F)C(F)(F)C(F)(F)C(F)(F)F` [2a3e], in that order: 0.2%, 0.2% and 0.25%.
With `O=C(O)CSCCC(F)(F)C(F)(F)C(F)(F)C(F)(F)C(F)(F)C(F)(F)C(F)(F)C(F)(F)F` [2a3f], in the data set on L929 mouse fibroblasts, the “Maximum Non-Cytotoxic Concentration L929” value is reported as 0.2%. Also, the “Maximum Non-Cytotoxic Concentration HMEC-1” value in data set [1] is 0.2%. In the data set with blood, the “Maximum Non-Hemolytic Concentration” value is reported as above 2.00%.
On to `O=C(O)CCCCCSCCC(F)(F)C(F)(F)C(F)(F)C(F)(F)C(F)(F)C(F)(F)C(F)(F)C(F)(F)F` [2c3a], for which, in the data set on L929 mouse fibroblasts, the “Maximum Non-Cytotoxic Concentration L929” value worked out at 0.5%. Also, the “Maximum Non-Cytotoxic Concentration HMEC-1” value in data set [1] is listed as 0.5%. For the same compound, in the data set on blood, the “Maximum Non-Hemolytic Concentration” value was determined as 0.02%.
`O=C(O)CCCCCSCCC(F)(F)C(F)(F)C(F)(F)C(F)(F)C(F)(F)C(F)(F)C(F)(F)C(F)(F)F` [2c3c]: the “Maximum Non-Cytotoxic Concentration L929” value with L929 mouse fibroblasts turned out to be 0.25%. For the same compound, the “Maximum Non-Cytotoxic Concentration HMEC-1” value in data set [1] turned out to be 0.5%. Besides, the “Maximum Non-Hemolytic Concentration” value in the data set on blood is given as 0.25%.
For the compound `O=C(O)CCCCCSCCC(F)(F)C(F)(F)C(F)(F)C(F)(F)C(F)(F)C(F)(F)C(F)(F)C(F)(F)F` [2c3e], in the data set with L929 mouse fibroblasts, the “Maximum Non-Cytotoxic Concentration L929” value was found to be 0.5%. Besides, the “Maximum Non-Cytotoxic Concentration HMEC-1” value in data set [1] turned out to be 1%. Also, the “Maximum Non-Hemolytic Concentration” value in the data set with blood is given as 0.02%.
For the compound `O=C(O)CCCCCSCCC(F)(F)C(F)(F)C(F)(F)C(F)(F)C(F)(F)C(F)(F)C(F)(F)C(F)(F)F` [2c3f], the “Maximum Non-Cytotoxic Concentration L929” value with L929 mouse fibroblasts is listed as below 0.25%. Also, the “Maximum Non-Cytotoxic Concentration HMEC-1” value in data set [1] is listed as 1%. In the data set with blood, the “Concentrations with hemolytic properties” value was “above 0.05%” and the “Maximum Non-Hemolytic Concentration” value stood at 0.01%.
Turning to `O=C(O)CCCCCSCCC(F)(F)C(F)(F)C(F)(F)C(F)(F)C(F)(F)C(F)(F)C(F)(F)C(F)(F)F` [2c3k], the “Maximum Non-Cytotoxic Concentration L929” value in the data set with L929 mouse fibroblasts amounted to 0.25%. Besides, the “Maximum Non-Cytotoxic Concentration HMEC-1” value in data set [1] is listed as 1%. Moreover, in the data set on blood, the “Maximum Non-Hemolytic Concentration” value was 0.05%.
With `O=C(O)CCCCCSCCC(F)(F)C(F)(F)C(F)(F)C(F)(F)C(F)(F)C(F)(F)C(F)(F)C(F)(F)F` [2c3l], the “Maximum Non-Cytotoxic Concentration L929” value with L929 mouse fibroblasts is 0.25* %. Besides, the “Maximum Non-Cytotoxic Concentration HMEC-1” value in data set [1] came out at 0.5%. The “Maximum Non-Hemolytic Concentration” value in the data set on blood turned out to be 0.02%.
The matching figures for `O=C(O)CCC(=O)OCCC(F)(F)C(F)(F)C(F)(F)C(F)(F)C(F)(F)C(F)(F)F` [2i2i3h]: 0.1%, 0.1% and 0.05%.
The matching figures for `O=C(O)CCC(=O)OCCC(F)(F)C(F)(F)C(F)(F)C(F)(F)C(F)(F)C(F)(F)F` [2i3c]: 0.10** %, 0.10** % and 0.02%.
For `O=C(O)CCC(=O)OCCC(F)(F)C(F)(F)C(F)(F)C(F)(F)C(F)(F)C(F)(F)F` [2i3e], in that order: 0.20** %, 0.10** % and 0.05%.
As for `O=C(O)CCC(=O)OCCC(F)(F)C(F)(F)C(F)(F)C(F)(F)C(F)(F)C(F)(F)F` [2i3k], the “Maximum Non-Cytotoxic Concentration L929” value in the data set with L929 mouse fibroblasts is reported as 0.1%. For the same compound, the “Maximum Non-Cytotoxic Concentration HMEC-1” value in data set [1] is given as 0.1%. The “Maximum Non-Hemolytic Concentration” value in the data set with blood is 0.1%.
`O=C(O)CCC(=O)OCCC(F)(F)C(F)(F)C(F)(F)C(F)(F)C(F)(F)C(F)(F)F` [2i3l]: in the data set on L929 mouse fibroblasts, the “Maximum Non-Cytotoxic Concentration L929” value is reported as 0.01** %. Also, in data set [1], the “Maximum Non-Cytotoxic Concentration HMEC-1” value is listed as 0.01** %. For the same compound, the “Maximum Non-Hemolytic Concentration” value in the data set on blood is listed as 0.05%.
Consider `O=C(O)CCC(=O)OCCC(F)(F)C(F)(F)C(F)(F)C(F)(F)C(F)(F)C(F)(F)C(F)(F)C(F)(F)F` [2j2j3h], for which the “Maximum Non-Cytotoxic Concentration L929” value with L929 mouse fibroblasts is 0.25** %. The “Maximum Non-Cytotoxic Concentration HMEC-1” value in data set [1] is listed as 1%. Moreover, the “Maximum Non-Hemolytic Concentration” value in the data set with blood is on record as above 2.00%.
In the case of `O=C(O)CCC(=O)OCCC(F)(F)C(F)(F)C(F)(F)C(F)(F)C(F)(F)C(F)(F)C(F)(F)C(F)(F)F` [2j3a], in the data set with L929 mouse fibroblasts, the “Maximum Non-Cytotoxic Concentration L929” value was found to be 0.2%. The “Maximum Non-Cytotoxic Concentration HMEC-1” value in data set [1] was determined as 0.2%. In addition, the “Maximum Non-Hemolytic Concentration” value in the data set with blood is recorded as above 2.00%.
Consider `O=C(O)CCC(=O)OCCC(F)(F)C(F)(F)C(F)(F)C(F)(F)C(F)(F)C(F)(F)C(F)(F)C(F)(F)F` [2j3k], for which the “Maximum Non-Cytotoxic Concentration L929” value in the data set on L929 mouse fibroblasts is on record as 0.50* %. In addition, in data set [1], the “Maximum Non-Cytotoxic Concentration HMEC-1” value is 0.5%. For the same compound, in the data set on blood, the “Concentrations with no hemolytic properties” value was at most 1% and the “Maximum Non-Hemolytic Concentration” value was 1%.
As for `O=C(O)CCC(=O)OCCC(F)(F)C(F)(F)C(F)(F)C(F)(F)C(F)(F)C(F)(F)C(F)(F)C(F)(F)F` [2j3l], the “Maximum Non-Cytotoxic Concentration L929” value in the data set with L929 mouse fibroblasts is listed as 0.10** %. In addition, the “Maximum Non-Cytotoxic Concentration HMEC-1” value in data set [1] came to 1%. Moreover, the “Maximum Non-Hemolytic Concentration” value with blood is above 2.00%.
For `O=C(O)CCCC(=O)OCCC(F)(F)C(F)(F)C(F)(F)C(F)(F)C(F)(F)C(F)(F)F` [2k3c], in that order: 0.10* %, 0.10* % and 0.05%.
For `O=C(O)CCCC(=O)OCCC(F)(F)C(F)(F)C(F)(F)C(F)(F)C(F)(F)C(F)(F)F` [2k3e], in that order: 0.10* %, 0.01* % and 0.05%.
The matching figures for `O=C(O)CCCC(=O)OCCC(F)(F)C(F)(F)C(F)(F)C(F)(F)C(F)(F)C(F)(F)F` [2k3k]: 0.20** %, 0.10** % and 0.05%.
Turning to `O=C(O)CCCC(=O)OCCC(F)(F)C(F)(F)C(F)(F)C(F)(F)C(F)(F)C(F)(F)F` [2k3l], the “Maximum Non-Cytotoxic Concentration L929” value in the data set on L929 mouse fibroblasts is listed as <0.25* %. Further, the “Maximum Non-Cytotoxic Concentration HMEC-1” value in data set [1] was below 0.25%. For the same compound, in the data set on blood, the “Maximum Non-Hemolytic Concentration” value turned out to be 0.05%.
The matching figures for `O=C(O)CCCC(=O)OCCC(F)(F)C(F)(F)C(F)(F)C(F)(F)C(F)(F)C(F)(F)C(F)(F)C(F)(F)F` [2l3c]: 0.5%, 0.5% and above 2.00%.
For `O=C(O)CCCC(=O)OCCC(F)(F)C(F)(F)C(F)(F)C(F)(F)C(F)(F)C(F)(F)C(F)(F)C(F)(F)F` [2l3l], in that order: above 1.00%, above 1.00% and above 2.00%.
The matching figures for `O=C(O)CC(F)(F)C(F)(F)C(F)(F)C(F)(F)C(F)(F)C(F)(F)F` [2p3c]: 0.1%, 0.1% and 0.25%.
As to `O=C(O)CC(F)(F)C(F)(F)C(F)(F)C(F)(F)C(F)(F)C(F)(F)F` [2p3e], in the data set on L929 mouse fibroblasts, the “Maximum Non-Cytotoxic Concentration L929” value is listed as 0.1%. Besides, the “Maximum Non-Cytotoxic Concentration HMEC-1” value in data set [1] is 0.25%. Further, the “Maximum Non-Hemolytic Concentration” value with blood came to 0.25%.
In the case of `O=C(O)C(CCC(F)(F)C(F)(F)C(F)(F)C(F)(F)C(F)(F)C(F)(F)C(F)(F)C(F)(F)F)C(=O)O` [2s3e], the “Maximum Non-Cytotoxic Concentration L929” value with L929 mouse fibroblasts stood at 0.25%. Moreover, in data set [1], the “Maximum Non-Cytotoxic Concentration HMEC-1” value is recorded as 0.25%. In addition, the “Maximum Non-Hemolytic Concentration” value in the data set with blood was found to be 0.1%.
